Source: PMC12016938, “A small molecule PKCε inhibitor reduces hyperalgesia induced by paclitaxel or opioid withdrawal” (JCI Insight, 2025)
Values joined by “and” are separate entries in the source; they are usually repeats but may differ in a detail not shown here. Equal values may be shown once. Read-outs that look alike come from different tables or passages of the source.

Legend:
PKCε = target: T1, PKCε (Homo sapiens, UniProt Q02156); assay: PKCε activity with increasing ATP and CP612 (ATP competition); type: biochemical; parameters: His; AVI; made in house; host or cells: Sf9 cells; settings: without CP612; 95% CI 2.23–7.61 μM
T1 sequence (Q02156 1-737): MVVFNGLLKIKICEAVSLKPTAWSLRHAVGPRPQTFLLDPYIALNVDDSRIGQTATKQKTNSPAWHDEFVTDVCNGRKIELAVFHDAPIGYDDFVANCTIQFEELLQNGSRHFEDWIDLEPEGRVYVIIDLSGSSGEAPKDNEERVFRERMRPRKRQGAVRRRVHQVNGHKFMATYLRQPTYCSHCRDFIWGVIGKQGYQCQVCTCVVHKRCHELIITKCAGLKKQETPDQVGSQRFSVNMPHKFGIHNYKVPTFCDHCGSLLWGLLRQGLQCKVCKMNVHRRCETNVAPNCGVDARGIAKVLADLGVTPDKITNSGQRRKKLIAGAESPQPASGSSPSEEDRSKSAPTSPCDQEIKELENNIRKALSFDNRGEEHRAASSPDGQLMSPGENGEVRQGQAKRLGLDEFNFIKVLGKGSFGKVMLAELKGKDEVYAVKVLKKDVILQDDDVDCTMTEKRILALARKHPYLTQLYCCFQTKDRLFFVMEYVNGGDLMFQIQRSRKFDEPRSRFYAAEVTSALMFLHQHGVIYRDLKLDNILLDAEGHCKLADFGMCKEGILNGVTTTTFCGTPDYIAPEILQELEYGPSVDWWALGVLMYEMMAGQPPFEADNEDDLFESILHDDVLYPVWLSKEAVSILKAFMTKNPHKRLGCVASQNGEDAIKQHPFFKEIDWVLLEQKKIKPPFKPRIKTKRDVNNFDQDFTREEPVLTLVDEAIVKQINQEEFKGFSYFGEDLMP
Method: Therefore, we assayed PKCε activity with increasing concentrations of ATP and in the presence of increasing concentrations of CP612.
Kinase assays. CP612 was assayed against His-AVI–tagged human PKCε (1 nM) produced in Sf9 cells, and ROCK1 (Carna Biosciences; 5 nM) using the Lance-FRET kinase assay system (PerkinElmer Revvity). Other human recombinant PKCs (SignalChem Biotech) were assayed in triplicate at the following concentrations: PKCβII 1.6 nM, PKCγ 500 pM, PKCδ 5 nM, PKCθ 500 pM, and PKCζ 500 pM. PKCs were incubated in a 15 μL reaction volume with kinase buffer (20 mM Tris-HCL [pH 7.4], 10 mM MgCl2, 0.25 mM EGTA, 0.1 mg/mL BSA, and 0.15% Triton X-100), 50 nM ULight-labeled CREBtide […] (PerkinElmer, TRF0107, Revvity), and test compound. […] after 60 minutes with 10 μL of 2.5× Stop Solution/Detection Mix containing 20 mM EDTA and 4 nM LANCE Ultra Europium anti–phospho-[…] peptide antibody (PerkinElmer, TRF0200, Revvity). After incubation at 27°C for another 60 minutes, phosphorylation was detected using a FlexStation 3 Microplate Reader (Molecular Devices) in LANCE TR-FRET mode (excitation = 340 nm, emission = 665 nm) and expressed as relative fluorescence units (RFU). The percentage of inhibition was calculated as: (signal without test compound − signal with test compound)/(signal without test compound − signal without ATP) × 100. The Z’ factor for this assay ranged between 0.72 and 0.86.

[1] = Plasma protein binding, equilibrium dialysis (RED); type: in vitro ADME, human; settings: for % Recovery / recovery at 4 h, 10 µM: PBS + Plasma relative to starting concentration of 10 uM
Method: Plasma protein binding. Binding of CP612 to human plasma proteins was measured by equilibrium dialysis using a Rapid Equilibrium Dialysis (RED) Device (Thermo Fisher Scientific). The device uses plates with wells preloaded with equilibrium dialysis membrane inserts, each of which includes 2 side-by-side chambers separated by a dialysis membrane. […] All compounds were tested in triplicate. […] A total of 200 μL of diluted test compound was then added to the plasma chambers of triplicate wells of a 48-sample RED plate (Thermo Fisher Scientific). In total, 400 μL of 0.1M PBS buffer were added to each buffer chamber. The plate was sealed with adhesive foil and incubated at 37°C with shaking for 4 hours, after which 30 μL were removed from each chamber and diluted with either 30 μL of plasma (for buffer chamber samples) or 30 μL of 0.1M PBS (for plasma chamber samples). Samples were extracted with 3 volumes of acetonitrile, centrifuged at 16,000g at 4°C for 10 minutes, and analyzed by LC-MS to calculate the amount of drug in each chamber. The percentage of free compound was calculated as the concentration in the buffer chamber/concentration in the plasma chamber × 100%. The percentage of protein-bound compound was calculated as 100% – the percentage of free compound.

Plasma stability = settings: for % Absolute: human plasma (hPL); for half-life: human
Method: Plasma stability. To determine in vitro plasma stability, we calculated in vitro plasma half-life. We incubated test substances (0.6 μL) with 60 μL human plasma (BioIVT) in quadruplicate at 37°C.

Microsomal clearance = settings: for half-life at 8.5 μM: both, human, microsomes; for % Absolute: human liver microsomes (HLM)
Method: Microsomal clearance. To determine if CP612 was a likely substrate for first-pass hepatic metabolism, we measured the stability of CP612 in the presence of human liver microsomes (BioIVT) pooled from over 100 male and female individuals. […] Test compounds were diluted to 10 μM in 0.1M PBS, and then 51 μL were dispensed in quadruplicate into wells of a 96-well plate, which was shaken at 600 rpm at 37°C. Reactions were initiated by adding 1.5 μL of microsomes (20 mg/mL) to the wells and 3 minutes later adding 7.5 μL of 8 mM NADPH (1 mM final concentration). Samples incubated without NADPH were used as negative controls.

[2] = (Corrected concentration in PBS / Corrected concentration in Plasma) * 100, individual replicates
[3] = human, individual replicates, read-out: % Recovery
[4] = human, mean of replicates, read-out: % Recovery, Mean
[5] = time 0 min, individual replicates
[6] = time 15 min, individual replicates
[7] = time 30 min, individual replicates
[8] = time 60 min, individual replicates

SMILES: Nc1ncnc2c1ncn2[C@@H]1O[C@H](COP(=O)(O)OP(=O)(O)OP(=O)(O)O)[C@@H](O)[C@H]1O [ATP]
- EC50 (PKCε): 4.2 µM

SMILES: COCCc1ccc(OCC(O)CNC(C)C)cc1 (stereo not shown) [Metoprolol, metoprolol]
- % Free [1, 2]: 91.52%
- % Recovery ([1]; individual replicates): 70.00% and 78.51%
- recovery at 4 h, 10 µM [1, 3]: 66.7%
- recovery at 4 h, 10 µM [1, 4]: 71.8%
- % Bound ([1]; individual replicates): 8.48% and 10.85%

SMILES: CCN(CC)CCOC(=O)c1ccc(N)cc1 [Procaine, reference compound]
- % Absolute (Plasma stability; [5]): 122.69% and 106.84% and 107.17% and 113.76%
- % Absolute (Plasma stability; [6]): 0.17% and 0.32% and 0.18%
- % Absolute (Plasma stability; [7]): 0.00%
- % Absolute (Plasma stability; [8]): 0.00%
- % Absolute (Plasma stability; time 180 min, individual replicates): 0.00%
- Plasma stability Cl (Plasma stability; human plasma, 37°C): 25.29 ± 1.35 µL/min
- Cl (clearance) (Plasma stability; human plasma, individual replicates): 26.280 and 23.303 and 25.557 and 26.005
- t1/2 (half life) (Plasma stability; human plasma, individual replicates, time axis in min, in min): 1.785 and 1.627 and 1.599
- half-life (Plasma stability; human plasma, Plasma stability t½ (min), 37°C): 1.65 ± 0.09 min
- half-life (Plasma stability; plasma, t1/2 (half life), Mean, human plasma, mean of replicates, time axis in min): 1.65 min
- half-life (Plasma stability; plasma, t1/2 (half life), human plasma, individual replicates, time axis in min): 1.58 min

SMILES: C[C@]12CC[C@H]3[C@@H](CCC4=CC(=O)CC[C@@]43C)[C@@H]1CC[C@@H]2O [Testosterone]
- % Free [1, 2]: 6.33% and 6.14%
- % Recovery ([1]; individual replicates): 74.81% and 77.04%
- % Absolute (Sample_PBS) ([1]; PBS compartment, relative to starting concentration of 10 uM, individual replicates): 4.21% and 4.46% and 4.45%
- fraction unbound at 4 h, 10 μM ([1]; human plasma, individual replicates, read-out: % Bound (converted)): 0.0593
- recovery at 4 h, 10 µM [1, 3]: 75.2%
- recovery at 4 h, 10 µM [1, 4]: 75.7%
- fraction unbound at 4 h, 10 μM ([1]; human, plasma, (Corrected concentration in PBS / Corrected concentration in Plasma) * 100, individual replicates, read-out: % Free): 0.0593
- fraction unbound at 4 h, 10 μM ([1]; human, plasma, human plasma, 37°C, 4 hours, read-out: Plasma protein binding (% bound) (converted)): 0.0613
- fraction unbound at 4 h, 10 μM ([1]; human, plasma, mean of replicates, read-out: % Bound, Mean (converted)): 0.0613
- fraction unbound at 4 h, 10 μM ([1]; human, plasma, mean of replicates, read-out: % Free, Mean): 0.0613
- % Bound ([1]; individual replicates): 93.67% and 93.86%
- % Absolute (Sample_Plasma) ([1]; plasma compartment, relative to starting concentration of 10 uM, individual replicates): 70.98% and 70.35% and 72.59%
- t1/2 (half life) (Microsomal clearance; HLM, individual replicates, time axis in min): 14.3079 and 11.3615 and 11.8498
- half-life at 8.5 μM (Microsomal clearance; Microsomal clearance t½ (min), human liver microsomes, NADPH): 12.7 ± 1.37 min
- half-life at 8.5 μM (Microsomal clearance; t1/2 (half life), HLM, individual replicates, time axis in min): 13.4 min
- half-life at 8.5 μM (Microsomal clearance; t1/2 (half life), Mean, HLM, mean of replicates, time axis in min): 12.7 min
- % Absolute (Microsomal clearance; [5]): 122.56% and 99.88% and 106.38% and 105.61%
- % Absolute (Microsomal clearance; time 5 min, individual replicates): 82.74% and 96.20% and 86.80% and 92.26%
- % Absolute (Microsomal clearance; [6]): 59.56% and 70.78%
- % Absolute (Microsomal clearance; [7]): 54.15% and 32.42% and 34.78% and 45.15%
- % Absolute (Microsomal clearance; time 60 min, -NADPH, individual replicates): 125.64% and 123.20% and 118.26% and 117.65%
- % Absolute (Microsomal clearance; [8]): 5.58% and 4.76% and 2.71% and 3.01%
- Microsomal clearance Cl (Microsomal clearance; human liver microsomes, NADPH): 109.81 ± 11.69 µL/min
